Source: paper PMC5041982, “Small-molecule inhibition of STAT3 in radioresistant head and neck squamous cell carcinoma” (Oncotarget, 2016)

Tested on: STAT3/1 regulated genes
Assay: RNA-seq of UM-SCC-17B tumor xenografts
Format: in vivo
Details: UM-SCC-17B xenografts, nude mice

With `COc1ccc(S(=O)(=O)Nc2cc(-c3c(O)ccc4ccccc34)c(O)c3ccccc23)cc1` [Compound C188-9] the “Fold Change, ADM” value was 1.8, the “Fold Change, AKAP12” value was 2.9 and the “Fold Change, ALDH3A1” value was 2.6. The “Fold Change, ANPEP” value was 3.7, the “Fold Change, ATF3” value was 1.9 and the “Fold Change, BATF2” value was −2.1. The “Fold Change, CALML3” value was −1.7, the “Fold Change, CCL2” value was 5.1 and the “Fold Change, CCL20” value was 2.1. The “Fold Change, CCNA1” value was −2.3, the “Fold Change, CCND3” value was −1.6 and the “Fold Change, CLU” value was −1.7. The “Fold Change, CMPK2” value was −2.1, the “Fold Change, COL5A1” value was 1.7 and the “Fold Change, COL16A1” value was 1.8. For the same molecule, the “Fold Change, CXCL2” value was 2.9, the “Fold Change, CXCL3” value was 2.6 and the “Fold Change, CYP1B1” value was 2.0. For the same molecule, the “Fold Change, DDX58” value was −1.7, the “Fold Change, DYNC1H1” value was 1.5 and the “Fold Change, EGR1” value was 2.0. The “Fold Change, EPSTI1” value was −2.2, the “Fold Change, EREG” value was 1.8 and the “Fold Change, FOS” value was 2.0. The “Fold Change, FOSB” value was 1.9, the “Fold Change, GBP1” value was −1.7 and the “Fold Change, HERC5” value was −1.7. For the same molecule, the “Fold Change, HERC6” value was −1.6, the “Fold Change, HK2” value was 1.6 and the “Fold Change, HSPG2” value was 1.5. For the same molecule, the “Fold Change, IER3” value was 2.0, the “Fold Change, IFI6” value was −2.1 and the “Fold Change, IFI27” value was −1.7. For the same molecule, the “Fold Change, IFI35” value was −1.9, the “Fold Change, IFI44” value was −1.7 and the “Fold Change, IFI44L” value was −2.3. For the same molecule, the “Fold Change, IFIT1” value was −2.5, the “Fold Change, IFIT2” value was −2.2 and the “Fold Change, IFIT3” value was −2.5. For the same molecule, the “Fold Change, IFIT5” value was −1.6, the “Fold Change, IFITM1” value was −1.5 and the “Fold Change, IFITM3” value was −1.5. For the same molecule, the “Fold Change, IGFBP3” value was 3.3, the “Fold Change, IRF7” value was −1.7 and the “Fold Change, ISG15” value was −2.3. The “Fold Change, KRT15” value was −2.1, the “Fold Change, LY6E” value was −1.5 and the “Fold Change, MMP10” value was −1.7. The “Fold Change, MX1” value was −1.9, the “Fold Change, MX2” value was −1.8 and the “Fold Change, NAV1” value was 1.6. For the same molecule, the “Fold Change, NEDD9” value was 1.9, the “Fold Change, NNMT” value was −2.3 and the “Fold Change, NOTCH4” value was 1.8. For the same molecule, the “Fold Change, NPTX2” value was 6.5, the “Fold Change, NR4A2” value was 1.8 and the “Fold Change, NRP2” value was 1.9. The “Fold Change, OAS1” value was −2.1, the “Fold Change, OAS2” value was −1.8 and the “Fold Change, OASL” value was −2.6. The “Fold Change, PCDH17” value was −3.7, the “Fold Change, PDK1” value was 1.7 and the “Fold Change, PHLDA1” value was 1.8. The “Fold Change, PLSCR1” value was −1.8, the “Fold Change, PSMB9” value was −1.6 and the “Fold Change, PTGS2” value was 4.4. The “Fold Change, SAMD9” value was −1.7, the “Fold Change, SCARA3” value was −1.8 and the “Fold Change, SERPINB3” value was −1.6. The “Fold Change, SERTAD2” value was 1.6, the “Fold Change, SFRP1” value was −2.6 and the “Fold Change, SLC2A1” value was 1.7. The “Fold Change, SLC2A3” value was 5.9, the “Fold Change, SLC4A7” value was 1.8 and the “Fold Change, SLC7A11” value was 1.6. The “Fold Change, SLPI” value was −1.6, the “Fold Change, SMAD9” value was 2.7 and the “Fold Change, SP110” value was −1.6. For the same molecule, the “Fold Change, SPOCK3” value was −5.1, the “Fold Change, STC1” value was 1.8 and the “Fold Change, TGFBR3” value was 1.5. The “Fold Change, THBS1” value was 2.2, the “Fold Change, TNC” value was 2.9 and the “Fold Change, TRIM22” value was −1.7. The “Fold Change, TYMP” value was −1.7, the “Fold Change, UBE2L6” value was −1.5 and the “Fold Change, UPK1B” value was −1.9. For the same molecule, the “Fold Change, USP18” value was −1.9, the “Fold Change, VEGFA” value was 2.0 and the “Fold Change, VLDLR” value was 1.7.
